Experimental data: patent US20230027072A1, “IMPROVED METHODS, KITS, COMPOSITIONS AND DOSING REGIMENS FOR THE USE OF HETEROCYCLIC INHIBITORS OF ERK1 AND ERK2” (Asana Biosciences, LLC, priority 2019, published 2023)
Where two headings read alike, the source gives them in different places.

How the values were obtained:
[1] = tested on: phosphorylation of RSK1(S380) (the downstream target of ERK1/2); assay: Mechanistic (phospho-RSK1(S380) ELISA) assay in HT-29 cells; assay type: cell-based, human; conditions: 2 h treatment, read-out: Mechanistic Cell Assay RSK1 Phos HT29 IC50
Protocol: Mechanistic (Phospho-RSK1(5380) ELISA) Assay
HT-29 cells (colorectal carcinoma, B-RafV600E); obtained from ATCC, USA) were seeded (60,000 cells/well) in a 96-well plate and incubated at 37° C./5% CO2 overnight and then treated with desired compound dilutions for 2 h. Medium was removed and cells were rinsed once with ice-cold 1×PBS, then 0.070 mL ice-cold 1× cell lysis buffer containing 1 mM PMSF was added to each well and the plate was incubated on a shaker for 2 h and 30 min at 4° C. The plate was then centrifuged for 20 min (×4000 rpm) at 4° C. and the supernatant was transferred to a new plate. Cell lysates were diluted with sample diluent at a ratio of 1:1. The ELISA was then carried out following the manufacturer's protocol (PathScan® phospho-RSK1(Ser380) Sandwich ELISA Kit, Cell Signaling Technologies). The plate was read at 450 nm within 30 min after adding STOP solution. The IC50 values were subsequently determined using a sigmoidal dose-response curve (variable slope) in GraphPad Prism® 5 software. Compounds of the present disclosure inhibited phosphorylation of RSK1(5380) (the downstream target of ERK1/2) as determined in this assay.

[2] = tested on: HCT116 (colorectal carcinoma, K Ras G13D) cells; assay: Cell proliferation (Alamar Blue) assay, HCT116; assay type: cell-based, human
Protocol: (§1) Cell Proliferation (Alamar Blue) Assay
(§2) HT-29 (colorectal carcinoma, B-RafV600E), HCT116 (colorectal carcinoma, K Ras G13D), A375 (melanoma, B-RafV600E) and SK-Mel2 (melanoma, NRAS Q61R) cells (obtained from ATCC, USA) were seeded (5000 cells/well) in 96-well tissue culture plate and incubated at 37° C./5% CO2 for 16-24 hours. The cells were then treated with compounds, at concentrations typically from 0.0005 to 10 uM prepared in 3-fold serial dilutions. The plates were then incubated for 72 h at 37° C./5% CO2 in a moist environment. Then Alamar Blue™ reagent (final concentration 1×) was added to each well and incubated for 1-3 h at 37° C./5% CO2. The plates were read on fluorescence reader at 540 nm excitation and 590 nm emission wavelengths. The IC50 values were subsequently determined using a sigmoidal dose-response curve (variable slope) using GraphPad Prism® 5 software. Compounds of the present disclosure caused inhibition of HT-29, HCT116, A375 and SK-Mel2 cell proliferation as determined in these assays.

[3] = tested on: HT-29 (colorectal carcinoma, B-RafV600E) cells; assay: Cell proliferation (Alamar Blue) assay, HT-29; assay type: cell-based, human; conditions: read-out: Cell Proliferation Assay HT29 IC50
Protocol: as §1, §2

[4] = Phase 1 clinical study, pharmacokinetics (Example 39); assay type: in vivo; conditions: human; for AUC / Cmax: plasma, oral, Day 15; for AUC: read-out: AUCtau, mean (CV %); for Cmax: read-out: Cmax, mean (CV %)
Text: This human clinical study is designed to determine the maximum tolerated dose of the compound of Example 349 [S)—N-(2-Amino-1-(3-chloro-5-fluorophenyl)ethyl)-1-(5-methyl-2-((tetrahydro-2H-pyran-4-yl)amino)pyrimidin-4-yl)-1H-imidazole-4-carboxamide mandelic acid salt] and evaluate its safety, tolerability, pharmacokinetics and pharmacodynamics. This study is an open-label, non-randomized uncontrolled, multicenter, dose escalation, and cohort expansion study in subjects with histologically or cytologically confirmed advanced solid tumors for which no standard therapy exists. The compound of Example 349 was formulated as described in Example 35 above for administration to the study subjects.
Daily dosing: This part of the study was conducted using an accelerated titration design in which patients were dosed once daily in cycles of 3 weeks. The accelerated phase of the study included single-patient cohorts and escalation increases of 100% up to 80 mg/day dose cohorts in the absence of DLTs or ≥Grade 2 drug-related toxicity. In the absence of any DLTs or ≥Grade 2 drug-related toxicity, the conventional 3+3 design commenced at 80 mg/day dose level.
Weekly dosing: Once weekly dosing of subject in 3+3 escalating dose cohorts was explored as warranted by the emerging pharmacokinetics and clinical trial experience. Once weekly dose escalation increments were up to 50%, based on the absence of DLTs or ≥Grade 2 drug-related toxicity and the available tablet strengths. Initiation of escalating daily and weekly higher dose levels occurred only following safety data review and agreement by the Safety Review Committee.
Part A included and Part B will include a screening period (up to 21 days) and an estimated treatment period for up to 12 months. […] At the end of treatment, a post-treatment period of 4 weeks will commence that concludes with an end-of-study visit.
The pharmacokinetics of the compound of Example 349 was evaluated in the study subjects with solid tumors following once-daily oral administration at 10-80 mg or QW administration at 80-350 mg. […] With once-daily dosing, the accumulation in Cmax and AUCtau were approximately 2-fold based on the 40 mg data. With once-weekly administration, drug accumulation in plasma was minimal. […] Results of these pharmacokinetic studies are further illustrated in FIGS. 6 and 7, which show the plasma concentration-time profiles for the QD and QW regimens. FIGS. 6A and 6B show the plasma concentration over time for the compound of Example 349 measured on day 1 and day 15 for daily dosing at 10 mg/kg, 20 mg/kg, 40 mg/kg, 60 mg/kg and 80 mg/kg. […] FIGS. 7A and 7B show the plasma concentration over time for the compound of Example 349 measured on day 1 and day 15 for weekly dosing at 80 mg/kg, 120 mg/kg, 180 mg/kg, 250 mg/kg and 350 mg/kg.

[5] = molecular target: T1, ERK2 (Homo sapiens, UniProt P28482); assay: ERK2 HTRF (biochemical) assay
T1 construct: purchased Jubilant Biosys
Protocol: ERK1 and ERK2 HTRF (Biochemical) Assays
The assays described below employed a homogeneous time resolved fluorescence (HTRF) technique. The compounds were serially diluted by half-log with concentrations ranging from 0.0005 to 10 uM in the assay buffer (50 mM Tris pH-7.5, 1 mM EGTA, 2 mM DTT, 10 mM MgCl2, 0.1% Tween-20) and 20 uL of substrate-ATP mix [1 uM Biotin—LC-Myelin Basic Protein (MBP) derivatized Peptide (Anaspec)-24 uM ATP (Sigma)] was added to each well of the assay plate. Then 10 uL of enzyme mix [25 nM ERK1 or ERK2 (Jubilant Biosys) in assay buffer] was added to each well. The plate was incubated at room temperature for 60 min with shaking. The HTRF mix [625 nM LANCE® Ultra Europium-anti-phospho-MBP (Perkin Elmer) and 2 nM Phycolink® Streptavidin-Allophycocyanin (SA-APC) (Prozyme) in HTRF buffer (50 mM Tris-HCl pH-7.5, 100 mM NaCl, 0.1% BSA, 0.05% Tween20, 0.5 mM EDTA)] was prepared and 75 uL of this mix was added to the HTRF plate. After incubation for 60 min at room temperature, 10 uL of the reaction mixture was transferred to the HTRF assay plate and incubated for 45 min at room temperature with shaking. Plate was read using Pherastar in HTRF mode (excitation 337 nm, emission 665 & 620 nm). The IC50 values (half maximal inhibitory concentration values) were subsequently determined using a sigmoidal dose-response curve (variable slope) in GraphPad Prism® 5 software.

[6] = 40 mg daily (MTD for QD regimen)
[7] = 250 mg weekly (MTD for QW regimen)

T1 sequence (P28482 whole entry): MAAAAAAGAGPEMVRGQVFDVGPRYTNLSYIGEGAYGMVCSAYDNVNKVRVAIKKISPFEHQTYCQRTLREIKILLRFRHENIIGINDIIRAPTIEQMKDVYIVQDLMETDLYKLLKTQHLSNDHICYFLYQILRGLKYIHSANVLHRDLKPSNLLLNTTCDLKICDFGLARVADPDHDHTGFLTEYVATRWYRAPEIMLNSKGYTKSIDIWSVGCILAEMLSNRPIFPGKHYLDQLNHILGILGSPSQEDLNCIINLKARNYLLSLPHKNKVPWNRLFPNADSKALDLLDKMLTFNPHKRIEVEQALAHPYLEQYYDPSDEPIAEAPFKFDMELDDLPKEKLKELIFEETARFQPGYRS

Cc1cnc(NC2CCOCC2)nc1-n1cnc(C(=O)NC(CN)c2ccc(Cl)s2)c1 (stereo not drawn) [Example 274, N-(2-amino-1-(5-chlorothiophen-2-yl)ethyl)-1-(5-methyl-2-((tetrahydro-2H-pyran-4-yl)amino)pyrimidin-4-yl)-1H-imidazole-4-carboxamide]
IC50 ([1]; Homo sapiens, HT-29, 2 h): 100 to 250 nM

Cc1cnc(NC2CCOCC2)nc1-n1cnc(C(=O)NC(c2cccc(Cl)c2)C(C)O)c1 (stereo not drawn) [Example 252, N-(1-(3-chlorophenyl)-2-hydroxypropyl)-1-(5-methyl-2-((tetrahydro-2H-pyran-4-yl)amino)-pyrimidin-4-yl)-1H-imidazole-4-carboxamide]
IC50 [1]: 100 to 250 nM
IC50 ([2]; 72 h): 250 to 500 nM

Cc1cnc(Nc2ccc(F)cc2)cc1-n1cnc(C(=O)NC(CN)c2ccccc2)c1 (stereo not drawn) [Compound 191, N-(2-amino-1-phenylethyl)-1-(2-((4-fluorophenyl)amino)-5-methylpyridin-4-yl)-1H-imidazole-4-carboxamide]
IC50 ([3]; Homo sapiens, HT-29, 72 h): 250 to 500 nM
IC50 ([2]; Homo sapiens, HCT-116, 72 h): 500 to 2500 nM

Cc1cnc(NC2CCOCC2)nc1-n1cnc(C(=O)N[C@H](CN)c2cc(F)cc(Cl)c2)c1 [Example 349]
AUCtau values, dependence on dose ([4]; in vivo): dose dependent
Cmax values, dependence on dose ([4]; in vivo): dose dependent
Total CL/F, dependence on dose ([4]; in vivo): independent of dose levels
Vd/F, dependence on dose ([4]; in vivo): independent of dose levels
Tmax ([4]; in vivo, po): 1 to 4 h
half-life ([4]; in vivo, po): ~25 h
AUC [4, 6]: 492 ng·h/mL
Cmax [4, 6]: 61.5 ng/mL
AUC [4, 7]: 5500 ng·h/mL
Cmax [4, 7]: 495 ng/mL

1-(2- (benzo[d][1,3]diox- ol-5-ylamino)-5- methylpyrimidin-4- yl)-N-(1-(4- fluorophenyl)-2- hydroxyethyl)-1H- pyrrole-3- carboxamide [Example 172]
IC50 [1]: 100 to 250 nM
IC50 ([2]; 72 h): 250 to 500 nM

Cc1cnc(Nc2ccc(F)cc2)cc1-n1cnc(C(=O)NC(CN)c2ccccc2)c1 (single isomer, unassigned) [Example 227, N-(2-amino-1-phenylethyl)-1-(2-((4-fluorophenyl)-amino)-5-methyl-pyridin-4-yl)-1H-imidazole-4-carboxamide]
IC50 ([3]; Homo sapiens, HT-29, 72 h): 100 to 250 nM

Cc1cnc(Nc2ccc3occc3c2)nc1-n1ccc(C(=O)NC(CO)c2cccc(Cl)c2)c1 (stereo not drawn) [Example 68, 1-(2-(benzofuran-5-ylamino)-5-methylpyrimidin-4-yl)-N-(1-(3-chlorophenyl)-2-hydroxyethyl)-1H-pyrrole-3-carboxamide]
IC50 ([3]; Homo sapiens, HT-29, 72 h): 100 to 250 nM
IC50 ([1]; Homo sapiens, HT-29, 2 h): ≤ 100 nM
IC50 ([2]; Homo sapiens, HCT-116, 72 h): 100 to 250 nM

N-(1-(3-chloro- phenyl)-2-hydroxy- ethyl)-1-(2-((3- fluoro-2-methoxy- phenyl)amion)-5- methylpyrimidin-4- yl)-1H-pyrrole-3- carboxamide [Example 143]
IC50 [1]: 250 to 500 nM
IC50 ([2]; 72 h): 250 to 500 nM

Cc1cnc(NC2CCOCC2)nc1-n1cnc(C(=O)NC(c2cccc(Cl)c2)C(C)O)c1 (stereo not drawn) [Example 253, N-(1-(3-chlorophenyl)-2-hydroxypropyl)-1-(5-methyl-2-((tetrahydro-2H-pyran-4-yl)amino)-pyrimidin-4-yl)-1H-imidazole-4-carboxamide]
IC50 [1]: 500 to 2500 nM
IC50 ([2]; 72 h): > 2500 nM

N-((1s,3s)-1-(3- chlorophenyl)-3- hydroxycyclo- butyl)- 1-(5-methyl-2- ((tetrahydro-2H-4- yl)amino)pyrimi- din-4-yl)-1H- imidazole-4- carboxamide [Example 245]
IC50 [1]: 250 to 500 nM

Cc1cnc(Nc2ccc(F)cc2Cl)nc1-n1ccc(C(=O)N[C@H](CO)c2cccc(Cl)c2)c1 [Compound 29, (S)-1-(2-((2-Chloro-4-fluorophenyl)amino)-5-methylpyrimidin-4-yl)-N-(1-(3-chlorophenyl)-2-hydroxyethyl)-1H-pyrrole-3-carboxamide]
IC50 ([2]; 72 h): 500 to 2500 nM

Cc1cnc(N[C@H]2CC[C@H](O)CC2)nc1-n1cnc(C(=O)N[C@H](CO)c2cccc(Cl)c2)c1 [Example 242, N-((S)-1-(3-chlorophenyl)-2-hydroxyethyl)-1-(2-(((1r,4S)-4-hydroxy-cyclohexyl)amino)-5-methyl-pyrimidin-4-yl)-1H-imidazole-4-carboxamide]
IC50 ([1]; Homo sapiens, HT-29, 2 h): 250 to 500 nM
IC50 ([2]; Homo sapiens, HCT-116, 72 h): 500 to 2500 nM

Cc1cnc(NC2CCOCC2)nc1-n1cnc(C(=O)NC(CN)c2ccc(Cl)s2)c1 (single isomer, unassigned; enantiomer #2) [Example 291, N-(2-amino-1-(5-chlorothiophen-2-yl)ethyl)-1-(5-methyl-2-((tetrahydro-2H-pyran-4-yl)amino)pyrimidin-4-yl)-1H-imidazole-4-carboxamide (enantiomer #2)]
IC50 ([3]; 72 h): 250 to 500 nM
IC50 [1]: 250 to 500 nM
IC50 ([2]; 72 h): 500 to 2500 nM

Cc1cnc(Nc2ccc3c(c2)OC(F)(F)O3)cc1-n1cc(C(=O)NC(CN)Cc2ccccc2)nn1 (stereo not drawn) [Compound 134]
IC50 [5]: 500 to 2500 nM
